Experimental data taken from patent US8318726B2, “Benzylidineanthracenone linked pyrrolobenzodiazepine hybrids useful as anticancer agents and process for the preparation thereof” (Council of Scientific & Industrial Research, priority 2010, dated 2012).
Read-outs that look alike come from different tables or passages of the source.

Columns and labels:
[1] = system: duplex-form calf thymus DNA (CT-DNA); test: Thermal denaturation studies with calf thymus DNA; assay type: binding; conditions: [PBD]:[DNA] molar ratio 1:5, CT-DNA 100 μM, ligand 20 μM, pH 7.00
Description: Compounds were subjected to thermal denaturation studies with duplex-form calf thymus DNA (CT-DNA) using an adaptation of a reported procedure. Working solutions in aqueous buffer (10 mM NaH2PO41Na2HPO4, 1 mM Na2EDTA, pH 7.00±0.01) containing CT-DNA (100 μm in phosphate) and the PBD (20 μm) were prepared by addition of concentrated PBD solutions in DMSO to obtain a fixed [PBD]/[DNA] molar ratio of 1:5. The DNA-PBD solutions were incubated at 37° C. for 0, 18, and 36 h prior to analysis. Samples were monitored at 260 nm using a Beckman DU-7400 spectrophotometer fitted with high performance temperature controller, and heating was applied at 1° C. min^−1 in the 40-90° C. range. DNA helix→coil transition temperatures (Tm) were obtained from the maxima in the d(A260)/dT derivative plots. Results are given as the mean±standard deviation from three determinations and are corrected for the effects of DMSO co-solvent using a linear correction term. Drug-induced alterations in DNA melting behaviour are given by: ΔTm=Tm(DNA+PBD)−Tm (DNA alone), where the Tm value for the PBD-free CT-DNA is 69.0±0.01.
For a 1:5 molar ratio of [PBD]/[DNA], where CT-DNA concentration=100 μM and ligand concentration=20 μM in aqueous sodium phosphate buffer [10 mM sodium phosphate+1 mM EDTA, pH 7.00±0.01]. The ΔTm for PBD hybrids 5b, 5c, 5d, 5h, 5m and 5r at a [PBD]:[DNA] molar ratio of 1:5 increased to a value of 7.5° C., 9.3° C., 8.9° C., 8.0° C., 7.1° C., and 8.4° C. after 18 h incubation respectively.

[2] = system: lung cancer cell lines (A549); test: In vitro cytotoxicity, SRB assay, lung cancer A-549; assay type: cell-based, human
Excerpt: (§1) The C8-linked benzylidineanthracenone-PBD hybrids have been tested against eight human tumor cell lines derived from seven cancer types (breast, ovarian, colon, prostate, cervix, lung and oral cancer). For each compound, dose response curves for individual cell lines have been measured at a minimum of five concentrations at 10 fold dilutions. A protocol of 48 hrs continuous drug exposure has been used, and a sulforhodamine B (SRB) protein assay was used to estimate cell viability or growth. The results are expressed as percent of cell growth determined relative to that of untreated control cells. The GI50 values are the concentration for 50% cell growth inhibition (GI50) compared with the control has been calculated.

[3] = system: oral cancer cell lines (KB); test: In vitro cytotoxicity, SRB assay, oral cancer KB; assay type: cell-based, human
Excerpt: as §1

[4] = system: prostate cancer cell lines (PC3); test: In vitro cytotoxicity, SRB assay, prostate cancer PC-3; assay type: cell-based, human
Excerpt: as §1

[5] = system: colon cancer cell lines (Colo205); test: In vitro cytotoxicity, SRB assay, colon cancer Colo205; assay type: cell-based, human
Excerpt: as §1

[6] = system: cervix cancer cell lines (SiHa); test: In vitro cytotoxicity, SRB assay, cervix cancer SiHa; assay type: cell-based, human
Excerpt: as §1

[7] = system: ovarian cancer cell lines (A2780); test: In vitro cytotoxicity, SRB assay, ovarian cancer A2780; assay type: cell-based, human
Excerpt: as §1

[8] = system: lung cancer cell lines (HoP62); test: In vitro cytotoxicity, SRB assay, lung cancer Hop62; assay type: cell-based, human
Excerpt: as §1

[9] = system: breast cancer cell lines (MCF7); test: In vitro cytotoxicity, SRB assay, breast cancer MCF7; assay type: cell-based, human
Excerpt: as §1

[10] = Homo sapiens, A549, Lung A-549, 48 hrs continuous drug exposure, SRB, read-out: GI50
[11] = Homo sapiens, lung cancer cell lines (A549), exposure period of at least 48 hrs, read-out: GI50 (range for the group)
[12] = Homo sapiens, Oral KB, 48 hrs continuous drug exposure, SRB, read-out: GI50
[13] = Homo sapiens, oral cancer cell lines (KB), exposure period of at least 48 hrs, read-out: GI50 (range for the group)
[14] = Homo sapiens, Prostate PC-3, 48 hrs continuous drug exposure, SRB, read-out: GI50
[15] = Homo sapiens, prostate cancer cell lines (PC3), exposure period of at least 48 hrs, read-out: GI50 (range for the group)
[16] = Homo sapiens, COLO 205, Colon Colo205, 48 hrs continuous drug exposure, SRB, read-out: GI50
[17] = Homo sapiens, COLO 205, colon cancer cell lines (Colo205), exposure period of at least 48 hrs, read-out: GI50 (range for the group)
[18] = Homo sapiens, Cervix SiHa, 48 hrs continuous drug exposure, SRB, read-out: GI50
[19] = Homo sapiens, cervix cancer cell lines (SiHa), exposure period of at least 48 hrs, read-out: GI50 (range for the group)
[20] = Homo sapiens, Ovarian A2780, 48 hrs continuous drug exposure, SRB, read-out: GI50
[21] = Homo sapiens, ovarian cancer cell lines (A2780), exposure period of at least 48 hrs, read-out: GI50 (range for the group)
[22] = Homo sapiens, HOP-62, Lung Hop62, 48 hrs continuous drug exposure, SRB, read-out: GI50
[23] = Homo sapiens, HOP-62, lung cancer cell lines (HoP62), exposure period of at least 48 hrs, read-out: GI50 (range for the group)
[24] = Homo sapiens, Breast MCF7, 48 hrs continuous drug exposure, SRB, read-out: GI50
[25] = Homo sapiens, breast cancer cell lines (MCF7), exposure period of at least 48 hrs, read-out: GI50 (range for the group)

Compound | ΔTm, drug-induced shift in DNA melting temperature ([1]; 0 h incubation at 37° C.) | ΔTm, drug-induced shift in DNA melting temperature ([1]; 18 h incubation at 37° C.) | GI50 [2, 10] | GI50 [2, 11] | GI50 [3, 12] | GI50 [3, 13] | GI50 [4, 14] | GI50 [4, 15] | GI50 [5, 16] | GI50 [5, 17] | GI50 [6, 18] | GI50 [6, 19] | GI50 [7, 20] | GI50 [7, 21] | GI50 [8, 22] | GI50 [8, 23] | GI50 [9, 24] | GI50 [9, 25] | further results
COc1cc(C=C2c3ccccc3C(=O)c3ccccc32)ccc1O [2a, 4-hydroxy-3-methoxybenzylidineanthracenone, reference compound] | 0.4 °C | 0.8 °C | – | – | – | – | – | – | – | – | – | – | – | – | – | – | – | – | –
COc1cc(C=C2c3ccccc3C(=O)c3ccccc32)ccc1OCCCOc1cc2c(cc1OC)C(=O)N1CCC[C@H]1C=N2 [5b, 7-methoxy-8-(3-{2-methoxy-4-[(10-oxo-9,10-dihydro-9-anthracenyliden)methyl]phenoxy}propoxy)-(11aS)-1,2,3,11a-5H-pyrrolo[2,1-c][1,4]benzodiazepin-5-one] | 6.1 °C | 7.5 °C | 1760 nM | 155 to 1940 nM | 190 nM | 180 to 2500 nM | 180 nM | 150 to 2200 nM | 110 nM | 110 to 140 nM | 2200 nM | 2200 to 31000 nM | 148 nM | 148 to 168 nM | 190 nM | 170 to 260 nM | 140 nM | 90 to 180 nM | –
COc1cc(C=C2c3ccccc3C(=O)c3ccccc32)ccc1OCCCCOc1cc2c(cc1OC)C(=O)N1CCC[C@H]1C=N2 [5c, 7-methoxy-8-(4-{2-methoxy-4-[(10-oxo-9,10-dihydro-9-anthracenyliden)methyl]phenoxy}butoxy)-(11aS)-1,2,3,11a-5H-pyrrolo[2,1-c][1,4]benzodiazepin-5-one] | 7.7 °C | 9.3 °C | 1800 nM | 155 to 1940 nM | 200 nM | 180 to 2500 nM | 180 nM | 150 to 2200 nM | 120 nM | 110 to 140 nM | – | – | 150 nM | 148 to 168 nM | 180 nM | 170 to 260 nM | 90 nM | 90 to 180 nM | –
COc1cc(C=C2c3ccccc3C(=O)c3ccccc32)ccc1OCCCCCOc1cc2c(cc1OC)C(=O)N1CCC[C@H]1C=N2 [5d, 7-methoxy-8-(5-{2-methoxy-4-[(10-oxo-9,10-dihydro-9-anthracenyliden)methyl]phenoxy}pentoxy)-(11aS)-1,2,3,11a-5H-pyrrolo[2,1-c][1,4]benzodiazepin-5-one] | 7.4 °C | 8.9 °C | 1940 nM | 155 to 1940 nM | 180 nM | 180 to 2500 nM | 150 nM | 150 to 2200 nM | – | – | 2200 nM | 2200 to 31000 nM | 150 nM | 148 to 168 nM | 170 nM | 170 to 260 nM | 150 nM | 90 to 180 nM | –
COc1cc2c(cc1OCCCCOc1ccc(C=C3c4ccccc4C(=O)c4ccccc43)cc1)N=C[C@@H]1CCCN1C2=O [5h, 7-methoxy-8-(4-{4-[(10-oxo-9,10-dihydro-9-anthracenyliden)methyl]phenoxy}butoxy)-(11aS)-1,2,3,11a-5H-pyrrolo[2,1-c][1,4]benzodiazepin-5-one] | 6.6 °C | 8.0 °C | 150 nM | 155 to 1940 nM | 2400 nM | 180 to 2500 nM | 2200 nM | 150 to 2200 nM | 110 nM | 110 to 140 nM | 2500 nM | 2200 to 31000 nM | 168 nM | 148 to 168 nM | 200 nM | 170 to 260 nM | 160 nM | 90 to 180 nM | –
COc1cc2c(cc1OCCCCOc1cccc(C=C3c4ccccc4C(=O)c4ccccc43)c1)N=C[C@@H]1CCCN1C2=O [5m, 7-methoxy-8-(4-{3-[(10-oxo-9,10-dihydro-9-anthracenyliden)methyl]phenoxy}butoxy)-(11aS)-1,2,3,11a-5H-pyrrolo[2,1-c][1,4]benzodiazepin-5-one] | 6.5 °C | 7.1 °C | 1820 nM | 155 to 1940 nM | 2400 nM | 180 to 2500 nM | 180 nM | 150 to 2200 nM | 140 nM | 110 to 140 nM | 2200 nM | 2200 to 31000 nM | 160 nM | 148 to 168 nM | 230 nM | 170 to 260 nM | 170 nM | 90 to 180 nM | –
COc1ccc(C=C2c3ccccc3C(=O)c3ccccc32)cc1OCCCCOc1cc2c(cc1OC)C(=O)N1CCC[C@H]1C=N2 [5r, 7-methoxy-8-(4-{2-methoxy-5-[(10-oxo-9,10-dihydro-9-anthracenyliden)methyl]phenoxy}butoxy)-(11aS)-1,2,3,11a-5H-pyrrolo[2,1-c][1,4]benzodiazepin-5-one] | 6.3 °C | 8.4 °C | 1900 nM | 155 to 1940 nM | 2500 nM | 180 to 2500 nM | 2100 nM | 150 to 2200 nM | 140 nM | 110 to 140 nM | 31000 nM | 2200 to 31000 nM | 166 nM | 148 to 168 nM | 260 nM | 170 to 260 nM | 180 nM | 90 to 180 nM | –
COc1cc2c(cc1O)N=CC1CCCN1C2=O (centres unmarked) [DC-81, reference compound] | 0.3 °C | 0.7 °C | – | – | – | – | – | – | – | – | – | – | – | – | – | – | – | – | GI50 ([2]; Lung A-549, 48 hrs continuous drug exposure, SRB, read-out: GI50): 380 nM; GI50 ([3]; Oral KB, 48 hrs continuous drug exposure, SRB, read-out: GI50): 200 nM; GI50 ([4]; Prostate PC-3, 48 hrs continuous drug exposure, SRB, read-out: GI50): 200 nM; GI50 ([5]; Colon Colo205, 48 hrs continuous drug exposure, SRB, read-out: GI50): 120 nM; GI50 ([6]; Cervix SiHa, 48 hrs continuous drug exposure, SRB, read-out: GI50): 170 nM; GI50 ([7]; Ovarian A2780, 48 hrs continuous drug exposure, SRB, read-out: GI50): 150 nM; GI50 ([8]; Lung Hop62, 48 hrs continuous drug exposure, SRB, read-out: GI50): 150 nM; GI50 ([9]; Breast MCF7, 48 hrs continuous drug exposure, SRB, read-out: GI50): 2190 nM
